According to patent US20250230193A1, “CYCLIC COMPOUND HAVING SELECTIVE KRAS INHIBITORY EFFECT ON HRAS AND NRAS” (CHUGAI SEIYAKU KABUSHIKI KAISHA, priority 2022, published 2025):
Where a SMILES comes first, the peptide text is derived from it. Bridges are numbered along the chain shown (N, C = ends). [ ]: non-standard residue; d: D form. The star is where a group is joined. hPhe(3-Cl-4-CF3) = N[C@@H](CCc1ccc(C(F)(F)F)c(Cl)c1)C(=O)O; NPrPhe(4-CF3) = CCCN[C@@H](Cc1ccc(C(F)(F)F)cc1)C(=O)O; NMeGly(cPent) = CN[C@H](C(=O)O)C1CCCC1; Pro(4,4-F2) = O=C(O)[C@@H]1CC(F)(F)CN1; Piperidide(4-Me) = CC1CCN(*)CC1; NMeD = CN[C@@H](CC(=O)O)C(=O)O; NMeL = CN[C@@H](CC(C)C)C(=O)O; Morpholide = C1CN(*)CCO1; NMeA = CN[C@@H](C)C(=O)O; Ac5c = NC1(C(=O)O)CCCC1; Aze = O=C(O)[C@@H]1CCN1; Ac4c = NC1(C(=O)O)CCC1; Sar = CNCC(=O)O

Tests used:
[1] = biological target: GDP-bound NRAS wild-type protein (Homo sapiens, UniProt P01111); experiment: Binding to NRAS by surface plasmon resonance (SPR), Single Cycle Kinetics; details: SPR; for NRAS/KRAS (ratio of KD value for NRAS to KD value for KRAS) / NRAS/KRAS (ratio of KD value with respect to NRAS to KD value with respect to KRAS): GDP-bound NRAS wild-type vs GDP-bound KRAS wild-type
Chain of GDP-bound NRAS wild-type protein (P01111 whole entry): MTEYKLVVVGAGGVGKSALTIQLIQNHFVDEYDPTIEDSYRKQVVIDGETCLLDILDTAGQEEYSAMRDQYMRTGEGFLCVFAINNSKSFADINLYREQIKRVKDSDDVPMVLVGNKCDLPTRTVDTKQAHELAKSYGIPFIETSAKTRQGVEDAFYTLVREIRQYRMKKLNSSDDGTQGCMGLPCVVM

[2] = biological target: GDP-bound HRAS wild-type protein (Homo sapiens, UniProt P01112); experiment: Binding to HRAS by surface plasmon resonance (SPR), Single Cycle Kinetics; details: SPR; for HRAS/KRAS (ratio of KD value for HRAS to KD value for KRAS) / HRAS/KRAS (ratio of KD value with respect to HRAS to KD value with respect to KRAS): GDP-bound HRAS wild-type vs GDP-bound KRAS wild-type
Chain of GDP-bound HRAS wild-type protein (P01112 whole entry): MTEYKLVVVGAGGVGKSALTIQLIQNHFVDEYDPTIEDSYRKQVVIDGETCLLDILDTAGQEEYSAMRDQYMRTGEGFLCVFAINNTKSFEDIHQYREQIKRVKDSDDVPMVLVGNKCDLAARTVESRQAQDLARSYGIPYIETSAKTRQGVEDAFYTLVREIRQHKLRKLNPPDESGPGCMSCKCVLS

CCCN1C(=O)CN(C)C(=O)CN(C)C(=O)[C@H]([C@@H](C)CC)NC(=O)[C@H](CC(C)C)N(C)C(=O)C[C@@H](C(=O)N2CCOCC2)NC(=O)[C@H](C2CCCC2)N(C)C(=O)C2(CCC2)NC(=O)[C@@H]2CC(F)(F)CN2C(=O)[C@H](CCc2ccc(C(F)(F)F)c(Cl)c2)NC(=O)CN(C)C(=O)[C@@H]1Cc1ccc(C(F)(F)F)cc1 [PP0322] ([NMeL]I[Sar][Sar][NPrPhe(4-CF3)][Sar][hPhe(3-Cl-4-CF3)][Pro(4,4-F2)][Ac4c][NMeGly(cPent)]D-Morpholide; lactam N-11)
NRAS/KRAS (ratio of KD for GDP-bound NRAS wild-type to KD for KRAS) ([1]; KD ratio NRAS/KRAS): B (a compound having 3 or more and less than 10 is denoted as B)
HRAS/KRAS (ratio of KD for GDP-bound HRAS wild-type to KD for KRAS) ([2]; KD ratio HRAS/KRAS): C (A compound having a KD ratio of 0.1 or more and less than 3 is denoted as C)

CCCOC[C@H]1C(=O)N[C@@H]([C@@H](C)CC)C(=O)N(C)CC(=O)N(C)[C@H]2C/C=C\CCN(C2=O)[C@@H](Cc2ccc(C(F)(F)F)cc2)C(=O)N(C)CC(=O)N[C@@H](CCc2cc(F)c(C(F)(F)F)c(F)c2)C(=O)N2C[C@H](OCC)C[C@H]2C(=O)NC2(CC(C)(C)C2)C(=O)N(C)[C@@H](C2CCCC2)C(=O)N(C)[C@H](C(=O)N(C)CCC)CC(=O)N1C [PP1673]
NRAS/KRAS (ratio of KD value for NRAS to KD value for KRAS) [1]: A (a compound having 10 or more and less than 20 is denoted as A)
HRAS/KRAS (ratio of KD value for HRAS to KD value for KRAS) [2]: A (a compound having 10 or more and less than 20 is denoted as A)

CCO[C@@H]1C[C@H]2C(=O)NC3(CCC3)C(=O)N(C)[C@@H](C3CCCC3)C(=O)N(C)[C@H](C(=O)N(C)CC)CC(=O)N(C)[C@@H](CC3CCC3)C(=O)N[C@@H]([C@@H](C)CC)C(=O)N(C)CC(=O)N(C)[C@H]3C/C=C\CCN(C3=O)[C@@H](Cc3ccc(C(F)(F)F)cc3)C(=O)N(C)CC(=O)N[C@@H](CCc3cc(F)c(C(F)(F)F)c(F)c3)C(=O)N2C1 [PP1667]
NRAS/KRAS (ratio of KD value for NRAS to KD value for KRAS) [1]: A (a compound having 10 or more and less than 20 is denoted as A)
HRAS/KRAS (ratio of KD value for HRAS to KD value for KRAS) [2]: A (a compound having 10 or more and less than 20 is denoted as A)

CCCN1C(=O)[C@@H]2CCN2C(=O)[C@H](C)N(C)C(=O)[C@H]([C@@H](C)CC)NC(=O)[C@H](CC(C)C)N(C)C(=O)C[C@@H](C(=O)N2CCC(C)CC2)N(C)C(=O)[C@H](C2CCCC2)N(C)C(=O)C2(CCCC2)NC(=O)[C@@H]2CCCN2C(=O)[C@H](CCc2ccc(C(F)(F)F)c(Cl)c2)NC(=O)CN(C)C(=O)[C@@H]1Cc1ccc(C(F)(F)F)cc1 [PP0185] ([NMeL]I[NMeA][Aze][NPrPhe(4-CF3)][Sar][hPhe(3-Cl-4-CF3)]P[Ac5c][NMeGly(cPent)][NMeD]-{Piperidide(4-Me)}; lactam N-11)
NRAS/KRAS (ratio of KD for GDP-bound NRAS wild-type to KD for KRAS) ([1]; KD ratio NRAS/KRAS): C (A compound having a KD ratio of 0.1 or more and less than 3 is denoted as C)
HRAS/KRAS (ratio of KD for GDP-bound HRAS wild-type to KD for KRAS) ([2]; KD ratio HRAS/KRAS): B (a compound having 3 or more and less than 10 is denoted as B)

CCO[C@@H]1C[C@H]2C(=O)NC3(CCCC3)C(=O)N(C)[C@@H](C3CCCC3)C(=O)N(C)[C@H](C(=O)N(C)C)CC(=O)N(C)[C@@H](CC)C(=O)N[C@@H]([C@@H](C)CC)C(=O)N(C)CC(=O)N(C)[C@H]3C[C@@H](C)CCN(C3=O)[C@@H](Cc3ccc(C(F)(F)F)cc3)C(=O)N(C)CC(=O)N[C@@H](CCc3cc(F)c(C(F)(F)F)c(F)c3)C(=O)N2C1 [PP1022]
NRAS/KRAS (ratio of KD value with respect to NRAS to KD value with respect to KRAS) [1]: C (A compound having a KD ratio of 0.1 or more and less than 3 is denoted as C)
HRAS/KRAS (ratio of KD value with respect to HRAS to KD value with respect to KRAS) [2]: B (a compound having 3 or more and less than 10 is denoted as B)

CCO[C@@H]1C[C@H]2C(=O)NC3(CCC3)C(=O)N(C)[C@@H](C3CCCC3)C(=O)N(C)[C@H](C(=O)N(C)C)CC(=O)N(C)[C@@H](COC)C(=O)N[C@@H]([C@@H](C)CC)C(=O)N(C)CC(=O)N(C)[C@H]3C/C=C\CCN(C3=O)[C@@H](Cc3ccc(C(F)(F)F)cc3)C(=O)N(C)CC(=O)N[C@@H](CCc3cc(F)c(C(F)(F)F)c(F)c3)C(=O)N2C1 [PP1113]
NRAS/KRAS (ratio of KD value with respect to NRAS to KD value with respect to KRAS) [1]: A (a compound having 10 or more and less than 20 is denoted as A)
HRAS/KRAS (ratio of KD value with respect to HRAS to KD value with respect to KRAS) [2]: A (a compound having 10 or more and less than 20 is denoted as A)

CC[C@H](C)[C@@H]1NC(=O)[C@H](CC(C)C)N(C)C(=O)C[C@@H](C(=O)N2CCOCC2)N(C)C(=O)[C@H](C2CCCC2)N(C)C(=O)C2(CCCC2)NC(=O)[C@@H]2CCCN2C(=O)[C@H](CCc2ccc(C(F)(F)F)c(Cl)c2)NC(=O)CN(C)C(=O)[C@H](Cc2ccc(Cl)cc2)N2CCCCC[C@@H](C2=O)N(C)C(=O)CN(C)C1=O [PP0613]
NRAS/KRAS (ratio of KD value with respect to GDP-bound NRAS wild-type protein to KD value with respect to KRAS) ([1]; KD ratio NRAS/KRAS): B (a compound having 3 or more and less than 10 is denoted as B)
HRAS/KRAS (ratio of KD value with respect to GDP-bound HRAS wild-type protein to KD value with respect to KRAS) ([2]; KD ratio HRAS/KRAS): B (a compound having 3 or more and less than 10 is denoted as B)
